These results are taken from ChEMBL document CHEMBL1201862, “PubChem BioAssay data set” (2004).

In test [1] the target is T1, Oxysterols receptor LXR-beta (Homo sapiens, UniProt P55055).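 Note: agonist activity at LXR measured by a cell-based luminescence readout across a dose range, run as a counterscreen for daf-12 agonists; HEK293 cells with Gal4-LXR fusion and GAL4-driven luciferase reporter; potency for activation of Gal4-LXR reporter so compounds are agonists.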
T1 sequence (P55055 whole entry): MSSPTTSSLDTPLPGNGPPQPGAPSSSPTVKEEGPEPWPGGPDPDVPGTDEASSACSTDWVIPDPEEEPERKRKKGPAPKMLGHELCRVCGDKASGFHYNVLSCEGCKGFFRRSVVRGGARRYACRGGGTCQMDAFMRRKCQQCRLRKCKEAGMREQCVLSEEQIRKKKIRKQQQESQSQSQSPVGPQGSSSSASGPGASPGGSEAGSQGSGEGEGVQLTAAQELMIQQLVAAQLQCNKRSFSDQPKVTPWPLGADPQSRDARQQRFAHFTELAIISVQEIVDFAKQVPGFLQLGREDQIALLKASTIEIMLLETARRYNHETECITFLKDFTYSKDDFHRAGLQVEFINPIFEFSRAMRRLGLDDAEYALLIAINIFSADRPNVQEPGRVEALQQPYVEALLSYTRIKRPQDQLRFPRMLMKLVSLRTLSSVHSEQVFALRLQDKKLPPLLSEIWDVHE
In kind it is functional, cell-based.

The target in a further test is Steroidogenic factor 1 (Homo sapiens, UniProt Q13285). Kind of test: Counterscreen for inverse agonists of the liver receptor homolog-1 (LRH-1; NR5A2): Luminescence-based cell-based high throughput dose response assay to identify inverse agonists of the Steroidogenic Factor 1 Nuclear Receptor (SF1; NR5A1). In kind it is functional.
Test [2] addresses Nuclear receptor subfamily 5 group A member 2 (Homo sapiens, UniProt O00482). Type of test: functional, cell-based.
Test [3] in a line: StAR promoter reporter inhibition counter-screen, dose response, counter-screen for LRH-1 inverse agonist project, cell-based, luminescence, luciferase reporter (AID 651969). In kind it is functional. (The purpose of a counterscreen is to sort out artefacts and off-target activity.)
Test [4] addresses T2, Disintegrin and metalloproteinase domain-containing protein 17 (Homo sapiens, UniProt P78536). The test can be described thus: exosite inhibitors of ADAM17, dose response, biochemical (AID 743260).
The target in test [5] is T2, Disintegrin and metalloproteinase domain-containing protein 17. Kind of test: ADAM17 protease inhibitors, dose response, counter-screen for ADAM10 exosite inhibitor project, biochemical, quenched FRET substrate (AID 743253).
Test [6] can be described thus: ADAM10 inhibitors, peptide cleavage, dose response, biochemical, QFRET (AID 743254).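 Note: ADAM10 enzyme with the DM2 quenched FRET peptide as substrate; EDANS fluorescence gain as the protease cuts the substrate; inhibitor potency against ADAM10 proteolytic activity.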
Test [7] deals with T3, Corticotropin-releasing factor receptor 2/Corticotropin-releasing factor-binding protein (Homo sapiens, UniProt P24387+Q13324).
T3 sequence (Q13324 whole entry): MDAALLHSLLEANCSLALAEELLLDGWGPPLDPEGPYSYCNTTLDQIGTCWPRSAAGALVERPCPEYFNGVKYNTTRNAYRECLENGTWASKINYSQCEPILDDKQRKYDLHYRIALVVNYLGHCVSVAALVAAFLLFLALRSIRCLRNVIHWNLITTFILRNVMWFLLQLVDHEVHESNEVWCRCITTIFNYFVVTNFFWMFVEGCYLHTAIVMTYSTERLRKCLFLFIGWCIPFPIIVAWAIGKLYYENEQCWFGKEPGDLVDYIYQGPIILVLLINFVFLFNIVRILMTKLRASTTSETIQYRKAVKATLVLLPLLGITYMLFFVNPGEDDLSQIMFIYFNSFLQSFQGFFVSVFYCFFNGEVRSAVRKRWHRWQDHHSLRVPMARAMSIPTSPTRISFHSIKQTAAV
T3 sequence (P24387 whole entry): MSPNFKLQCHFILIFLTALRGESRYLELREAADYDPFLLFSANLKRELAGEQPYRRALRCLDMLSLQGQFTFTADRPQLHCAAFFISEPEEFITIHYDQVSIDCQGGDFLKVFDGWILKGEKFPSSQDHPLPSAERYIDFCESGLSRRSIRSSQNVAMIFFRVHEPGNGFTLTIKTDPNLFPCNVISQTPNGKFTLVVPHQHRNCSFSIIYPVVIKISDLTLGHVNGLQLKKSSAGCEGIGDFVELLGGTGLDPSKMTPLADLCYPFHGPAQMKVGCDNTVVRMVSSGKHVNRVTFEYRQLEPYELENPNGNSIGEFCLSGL
The test can be described thus: activators of CRF receptor 2 with binding protein – uHTS hits, confirmation (AID 602473). Type of test: functional. The note with it: read-out: EC50_Mean.

The target of test [8] is T3, Corticotropin-releasing factor receptor 2/Corticotropin-releasing factor-binding protein. The test can be described thus: Dose Response confirmation of uHTS hits for small molecule antagonists of the CRF-binding protein and CRF-R2 receptor complex. In kind it is functional. The note with it: read-out: IC50_Mean.
Test [9] can be described thus: CRF-BP/CRF-R2 complex antagonists, dose response, cell-based, uHTS hits, 384-well (AID 651639). Type of test: functional, Homo sapiens. The conditions noted are these: read-out: IC50_Mean.
The next test has as its system Streptococcus. The test can be described thus: Group A Streptococcus viability loss, dose response, counter-screen for streptokinase expression inhibitor project, luminescence, BacTiterGlo (AID 1915).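 Note: potency for reduction of bacterial viability or growth.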 In kind it is functional, organism-based.
Test [10] in a line: inhibitors of firefly luciferase expression or activity, dose response, H4 neuroglioma cells, luminescence (AID 1990). In kind it is functional, cell-based.
Test [11] is described as follows: inhibitors of SNCA 5'UTR-driven reporter translation, confirmation, H4 neuroglioma cells, luminescence (AID 1988). In kind it is functional, cell-based.
Test [12] in a line: Luminescence Cell-Based Dose Response HTS to Identify Inhibitors of 5'UTR Stem-Loop Driven Prion Protein mRNA Translation in H4 Neuroglioblastoma Cells. [Related pubchem assays: 1827 (Project Summary), 1813 (Primary HTS)]. In kind it is functional.
Test [13] deals with Streptococcus sp. 'group A'. The test can be described thus: growth inhibition of control SK(-) GAS strain, dose response, counter-screen for streptokinase expression inhibitor project, luminescence, kanamycin, BacTiterGlo, confirmation (AID 1900). Type of test: functional, organism-based.
A further test concerns the target T4, Streptokinase A (Streptococcus pyogenes serotype M1, UniProt P10520).
T4 sequence (P10520 whole entry): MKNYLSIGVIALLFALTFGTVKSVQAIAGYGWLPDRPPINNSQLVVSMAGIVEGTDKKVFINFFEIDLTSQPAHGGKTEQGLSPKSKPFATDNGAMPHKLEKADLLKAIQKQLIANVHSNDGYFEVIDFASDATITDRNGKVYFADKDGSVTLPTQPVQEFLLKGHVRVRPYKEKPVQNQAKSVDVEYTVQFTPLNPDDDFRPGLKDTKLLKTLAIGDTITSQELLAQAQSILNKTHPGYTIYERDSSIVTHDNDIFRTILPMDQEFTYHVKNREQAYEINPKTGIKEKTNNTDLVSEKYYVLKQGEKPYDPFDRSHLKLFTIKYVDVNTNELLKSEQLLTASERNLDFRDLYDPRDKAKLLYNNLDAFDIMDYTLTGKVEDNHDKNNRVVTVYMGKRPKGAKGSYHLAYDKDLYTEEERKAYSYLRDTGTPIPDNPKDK
Kind of test: S. pyogenes streptokinase expression inhibitors, potency, dose response, plasminogen activation absorbance, OD405 (AID 1914).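 Note: secreted streptokinase activity via plasminogen activation per viability signal from cell pellet.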 Type of test: functional, Streptococcus pyogenes M1 GAS.

Test [14] addresses T5, Nuclear receptor subfamily 0 group B member 1 (Homo sapiens, UniProt P51843).
T5 sequence (P51843 whole entry): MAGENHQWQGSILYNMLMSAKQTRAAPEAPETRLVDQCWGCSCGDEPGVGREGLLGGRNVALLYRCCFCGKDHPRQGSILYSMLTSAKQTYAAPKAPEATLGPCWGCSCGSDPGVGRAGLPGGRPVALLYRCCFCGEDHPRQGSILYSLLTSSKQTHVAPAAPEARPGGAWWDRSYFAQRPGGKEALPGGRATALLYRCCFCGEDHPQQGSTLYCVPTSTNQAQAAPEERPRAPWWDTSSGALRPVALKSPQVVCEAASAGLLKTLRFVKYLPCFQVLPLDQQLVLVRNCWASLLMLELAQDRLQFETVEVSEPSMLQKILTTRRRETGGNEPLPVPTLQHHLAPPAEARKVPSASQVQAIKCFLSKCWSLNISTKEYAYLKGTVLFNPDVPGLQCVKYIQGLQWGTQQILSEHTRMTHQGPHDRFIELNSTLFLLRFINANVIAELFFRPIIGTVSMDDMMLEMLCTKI
In kind it is functional, cell-based.

Test [15] in a line: cells. In kind it is functional, cell-based.
In another test the target is T6, Caspase-6 (Homo sapiens, UniProt P55212).
T6 sequence (P55212 whole entry): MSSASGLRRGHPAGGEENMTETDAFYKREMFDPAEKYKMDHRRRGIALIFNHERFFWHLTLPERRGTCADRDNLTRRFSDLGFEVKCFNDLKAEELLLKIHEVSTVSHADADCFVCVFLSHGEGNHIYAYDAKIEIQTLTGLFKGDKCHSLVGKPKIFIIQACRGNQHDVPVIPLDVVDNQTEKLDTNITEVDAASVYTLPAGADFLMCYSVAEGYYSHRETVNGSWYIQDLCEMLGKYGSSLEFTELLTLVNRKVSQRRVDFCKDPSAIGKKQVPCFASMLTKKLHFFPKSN
Kind of test: human caspase-6 inhibitors, dose response, biochemical, VEID-R110 fluorescence, cherry-pick (AID 720632).

Test [16] in a line: cells. In kind it is functional, cell-based. The source holds these as a separate data set.
Test [17] in a line: cells. Type of test: functional, cell-based. This is another data set of the same source.
Test [18] can be described thus: ADAM10 protease inhibitors, dose response, selectivity assay for ADAM17 exosite inhibitor project, biochemical, FRET peptide substrate, recombinant human ADAM10 (AID 743259).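 Note: ADAM10 enzyme cleaving a FRET peptide substrate.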

The source made the active and inactive calls. A value given as a limit tells only on which side of the number the result lay.

T2 sequence (P78536 whole entry, the tested form may be a part): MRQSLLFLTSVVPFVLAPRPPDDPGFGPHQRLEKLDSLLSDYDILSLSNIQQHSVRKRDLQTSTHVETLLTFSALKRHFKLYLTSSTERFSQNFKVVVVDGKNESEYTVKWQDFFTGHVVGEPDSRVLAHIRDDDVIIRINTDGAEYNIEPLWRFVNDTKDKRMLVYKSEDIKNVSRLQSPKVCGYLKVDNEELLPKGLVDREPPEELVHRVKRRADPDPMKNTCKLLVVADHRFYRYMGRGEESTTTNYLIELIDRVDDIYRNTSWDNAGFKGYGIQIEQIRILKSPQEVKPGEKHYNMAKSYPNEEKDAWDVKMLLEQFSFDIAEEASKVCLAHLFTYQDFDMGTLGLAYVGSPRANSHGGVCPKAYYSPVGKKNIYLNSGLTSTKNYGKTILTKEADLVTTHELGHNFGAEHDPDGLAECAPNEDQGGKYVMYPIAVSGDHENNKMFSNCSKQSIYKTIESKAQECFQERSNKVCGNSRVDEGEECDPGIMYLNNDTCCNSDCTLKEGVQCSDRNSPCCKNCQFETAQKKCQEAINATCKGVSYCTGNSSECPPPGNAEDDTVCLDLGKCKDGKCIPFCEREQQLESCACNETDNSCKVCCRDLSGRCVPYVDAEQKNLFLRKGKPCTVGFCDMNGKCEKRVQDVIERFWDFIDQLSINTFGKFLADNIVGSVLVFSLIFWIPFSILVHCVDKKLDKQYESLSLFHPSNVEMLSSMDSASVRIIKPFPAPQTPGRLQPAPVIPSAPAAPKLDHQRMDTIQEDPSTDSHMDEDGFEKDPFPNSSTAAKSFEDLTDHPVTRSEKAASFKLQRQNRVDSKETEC
Chain of Nuclear receptor subfamily 5 group A member 2 (O00482 whole entry): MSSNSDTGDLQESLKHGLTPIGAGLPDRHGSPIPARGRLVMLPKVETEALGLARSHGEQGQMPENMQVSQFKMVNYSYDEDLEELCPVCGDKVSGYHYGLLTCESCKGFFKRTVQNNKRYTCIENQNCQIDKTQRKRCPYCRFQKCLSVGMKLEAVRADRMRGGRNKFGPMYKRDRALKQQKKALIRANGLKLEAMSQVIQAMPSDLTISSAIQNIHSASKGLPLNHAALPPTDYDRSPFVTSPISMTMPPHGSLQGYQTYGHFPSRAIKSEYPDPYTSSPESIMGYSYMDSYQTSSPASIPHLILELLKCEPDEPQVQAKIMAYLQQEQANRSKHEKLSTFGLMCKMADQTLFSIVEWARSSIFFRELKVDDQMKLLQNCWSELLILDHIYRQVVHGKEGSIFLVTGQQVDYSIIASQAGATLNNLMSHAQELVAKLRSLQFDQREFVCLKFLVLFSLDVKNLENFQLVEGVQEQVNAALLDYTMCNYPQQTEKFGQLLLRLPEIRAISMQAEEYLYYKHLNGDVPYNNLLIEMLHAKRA
Chain of Steroidogenic factor 1 (Q13285 whole entry): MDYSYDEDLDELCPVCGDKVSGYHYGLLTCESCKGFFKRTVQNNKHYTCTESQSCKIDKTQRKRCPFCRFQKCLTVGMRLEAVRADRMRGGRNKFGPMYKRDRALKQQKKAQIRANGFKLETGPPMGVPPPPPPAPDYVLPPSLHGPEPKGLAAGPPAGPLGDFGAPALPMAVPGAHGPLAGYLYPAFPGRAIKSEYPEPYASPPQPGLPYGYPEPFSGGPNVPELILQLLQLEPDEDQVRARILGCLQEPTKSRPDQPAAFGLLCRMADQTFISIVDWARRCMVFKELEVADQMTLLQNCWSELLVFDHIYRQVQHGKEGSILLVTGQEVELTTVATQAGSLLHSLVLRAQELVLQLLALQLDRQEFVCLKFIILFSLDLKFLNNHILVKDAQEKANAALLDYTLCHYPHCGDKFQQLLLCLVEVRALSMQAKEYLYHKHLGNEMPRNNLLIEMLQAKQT

As for `c1csc(-c2nnc(-c3ccc(N4CCOCC4)cc3)o2)c1`, in test [1], the EC50 is > 67.5 µM (inactive).
`CCOc1ccc(OCCC(=O)OCC(=O)Nc2ccc3c(c2)OCCO3)cc1`: the IC50 at Steroidogenic factor 1 is 12.7 µM (inactive); in test [2], 35.9 µM (inactive); in test [3] it was 35.9 µM (inactive).
For the molecule `CC(=O)c1cccc(NC(=O)C(OC(=O)c2ccccc2NS(=O)(=O)c2cccs2)c2ccccc2)c1` (stereo not drawn), the IC50 in [4], in test [5] and in [6] was > 69.5 µM (inactive) each time.
For `Cc1ccc(NC(=O)c2cc3c(s2)CCCC3)cc1S(=O)(=O)Nc1ccccc1Cl`, the IC50 in [5] and in test [6] was > 69.5 µM (inactive) in each case.
With `CCOc1ccc(Cl)cc1S(=O)(=O)n1nnc2ccccc21`, the EC50 in test [7] is > 53 µM (inactive). The IC50 in test [8] was 3.56 µM (active); in test [9], 2.16 µM (active).
As for `Cn1cc(C(=O)c2ccc(Cl)cc2Cl)cc1C(=O)NN=C(N)COc1ccc(Cl)cc1Cl`, the IC50 in test [5] and in test [6] was > 69.5 µM (inactive) each time. Further, the EC50 in the test on Streptococcus was 43.9 µM (active); in test [10], > 120 µM (not active); in test [11], 9.69 µM (active); in [12], 24.3 µM (active); in test [13], 0.927 µM (active); at Streptokinase A, > 150 µM (not active).
With `Cc1cc(C(=O)CSc2nnc(N)s2)c(C)n1C1CC1`, the IC50 (in test [14]; in the test “cells [15]”) was > 67.6 µM (inactive) each time.
`NC(=O)c1c(NC(=O)C2CC=CCC2C(=O)O)sc2c1CCCCC2` (stereo not drawn): on Caspase-6, the AC50 (in general, the midpoint of the concentration-response curve, whichever way the signal moves) was 5.79 µM (active).
Consider `CC1CCc2c(sc(NC(=O)C3=COCCO3)c2C(N)=O)C1` (stereo not drawn), for which, in [1], the EC50 was > 67.5 µM (inactive).
For the molecule `COc1ccccc1NC(=O)CN1CCN(CC(=O)Nc2ccc3c(c2)OCCO3)CC1`, the figures for the IC50 (on Steroidogenic factor 1; in [2]; in [3]) were 0.985 µM (active), 4.02 µM (active) and 35.9 µM (inactive), respectively.
Take `COc1ccc(C(=O)Nc2cc(=O)n(C)c(=O)n2C)cc1`: in [7], the EC50 was > 53 µM (inactive). The IC50 is < 0.368 µM (active) in [8] and > 20 µM (inactive) in [9].
For `CC1CCC2(CC1)NC(=O)N(CC(=O)Nc1ccc3c(c1)OCCCO3)C2=O` (stereo not drawn), the IC50 on Steroidogenic factor 1 was 1.02 µM (active); in test [2], 6.2 µM (active); in test [3], 35.9 µM (inactive).
On to `Cc1ccsc1C(=O)OCC(=O)c1cc(C)n(C)c1C`, for which the IC50 is > 0.278 µM (active) in test [14] and > 67.6 µM (inactive) in “cells [15]”.
Consider `CCN(CC)C1Oc2cc3c(cc2C(c2cccc(OC)c2O)C1C)OCO3` (stereo not drawn), for which the EC50 in test [7] was > 53 µM (inactive). For the same molecule, the results for the IC50 in [8] and in test [9] were 2.99 µM (active) and 5.28 µM (active), respectively.
Turning to `O=C(Cc1nnc(O)nc1O)N/N=C/c1ccccc1O`, the EC50 in the test “cells [16]” was > 29.9 µM (inactive). The IC50 in “cells [17]” was > 29.9 µM (inactive).
Consider `CNC(=O)C1CC(=O)N=C(N/N=C(\C)c2cccs2)S1` (stereo not drawn), for which the IC50 was > 69.5 µM (inactive) in [4] and > 23.2 µM (inactive) in test [18].
On to `c1ccc(Nc2nc(-c3cccnc3)cs2)nc1`, for which, in [1], the EC50 is > 67.6 µM (inactive).
